# Test results published in patent publication US8357350B2, “Annulus fibrosus detection in intervertebral discs using molecular imaging agents” (General Electric Company, priority 2009, dated 2013).
# Legend:
# intervertebral discs [1] = assay: FM fluorophore uptake, intraoperative fluorescence imaging; format: in vivo, mice and rats; as to Uptake: Intervertebral Disc: key: +: Positive contrast was concluded if the nerve-to-muscle contrast ratio of FM fluorophore-injected animals was elevated relative to control animals
# Method: (§1) Imaging was carried out at near infrared wavelenghts using a 400- to 700-nm “white” light (0.5 mW/cm^2) and a 725- to 775-nm NIR fluorescence excitation light (5 mW/cm^2). Fluorescence images were collected using exposure times ranging from 500 to 2000 msec. All images collected for comparison between vehicle-injected control animals and FM fluorophore-injected animals had the same exposure time and normalization. Color video images were collected on a separate optical channel using custom designed software. The excitation and emission LEDs and filter used for the FM fluorophores and Pam800 in the intraoperative imaging system are described as follows. For fluorescence excitation of FM 1-43, FM 2-10, FM 1-43FX and Formula IA, sixty 5-mm 470 nm LEDs ([…], Inc., Kyoto, Japan) fitted with 470±20 nm band pass (BP) excitation filters (Chroma Technology, Rockingham, Vt.) in custom holders were used, which produced a fluence rate on the imaging surface of 0.56 mW/cm^2. For fluorescence excitation of Formula II, FM 4-64, FM 4-64FX and FM 5-95, sixty 5-mm 535 nm LEDs fitted with 525±25 nm BP excitation filters were used, which produced a fluence rate on the imaging surface of 0.34 mW/cm^2. A 610±38 nm BP filter was used to detect fluorescence emission of FM 1-43, FM 2-10, Formula II, FM 1-43FX and Formula IA. To detect fluorescence emission of FM 4-64, FM 4-64FX and FM 5-95 a 720 nm long pass (LP) filter was used. For fluorescence excitation of Pam800, 348 5-mm 760 nm LEDs fitted with 764±17 nm BP excitation filters were used, which produced a fluence rate on the imaging surface of 8.73 mW/cm^2 and fluorescence emission was detected using a 824±24 nm BP emission filter. To assess the structure-activity relationship of the FM fluorophores, each molecule was administered at 5 mg/kg to mice and 0.5 mg/kg to rats (n=4 per group) in 10% DMSO and 90% PBS IP 16 hours before imaging with the intraoperative system. The fluorescence signal from the spinal cord, intervertebral discs, dorsal root ganglia, trigeminal ganglia, optic nerve, brain and femoral nerve were normalized to muscle signal in the same image. This normalization ratio was then compared between FM fluorophore-injected animals and vehicle-injected control animals.
# trigeminal ganglia = assay: as above; format: in vivo, mice and rats; settings: 5 mg/kg mice, 0.5 mg/kg rats IP, 16 hours before imaging; signal normalized to muscle, vs vehicle control; also: key: +: Positive contrast was concluded if the nerve-to-muscle contrast ratio of FM fluorophore-injected animals was elevated relative to control animals
# Method: as §1
# dorsal root ganglia = assay: as above; format: in vivo, mice and rats; settings: 5 mg/kg mice, 0.5 mg/kg rats IP, 16 hours before imaging; signal normalized to muscle, vs vehicle control; also: key: +: Positive contrast was concluded if the nerve-to-muscle contrast ratio of FM fluorophore-injected animals was elevated relative to control animals
# Method: as §1
# intervertebral discs [2] = assay: Two-wavelength imaging of resected spine with Pam800 and FORMULA IA; format: in vivo, Sprague-Dawley rat; settings: rat
# Method: Imaging was carried out at near infrared wavelenghts using a 400- to 700-nm “white” light (0.5 mW/cm^2) and a 725- to 775-nm NIR fluorescence excitation light (5 mW/cm^2). Fluorescence images were collected using exposure times ranging from 500 to 2000 msec. All images collected for comparison between vehicle-injected control animals and FM fluorophore-injected animals had the same exposure time and normalization. Color video images were collected on a separate optical channel using custom designed software. The excitation and emission LEDs and filter used for the FM fluorophores and Pam800 in the intraoperative imaging system are described as follows. For fluorescence excitation of FM 1-43, FM 2-10, FM 1-43FX and Formula IA, sixty 5-mm 470 nm LEDs (Epitex, Inc., Kyoto, Japan) fitted with 470±20 nm band pass (BP) excitation filters (Chroma Technology, Rockingham, Vt.) in custom holders were used, which produced a fluence rate on the imaging surface of 0.56 mW/cm^2. For fluorescence excitation of Formula II, FM 4-64, FM 4-64FX and FM 5-95, sixty 5-mm 535 nm LEDs fitted with 525±25 nm BP excitation filters were used, which produced a fluence rate on the imaging surface of 0.34 mW/cm^2. A 610±38 nm BP filter was used to detect fluorescence emission of FM 1-43, FM 2-10, Formula II, FM 1-43FX and Formula IA. […]
smiles,measurement,setting,value
"CCCCN(CCCC)c1ccc(/C=C/c2cc[n+](CCC[N+](C)(C)C)cc2)cc1.[Br-].[Br-] [Formula IA, (E)-4-(4-(dibutylamino)styryl)-1-(3-(trimethylammonio)propyl)pyridinium dibromide]",Uptake: Intervertebral Disc,"intervertebral discs [1]; 5 mg/kg mice, 0.5 mg/kg rats IP, 16 hours before imaging, signal normalized to muscle, vs vehicle control",+
same,contrast in the intervertebral discs,intervertebral discs [1]; IP administration to mice and rats,positive contrast
same,Uptake: Trigeminal Ganglia,trigeminal ganglia,+
same,Uptake: Dorsal Root Ganglia,dorsal root ganglia,+
same,overlap of signals with Pam800 (bone),intervertebral discs [2]; 7.5 nmol Pam800 16 h and 2 mg/kg Formula IA 4 h post-IV,no overlap
same,specificity of fluorescence signal in the spine,"intervertebral discs [2]; 2 mg/kg IV, 4 h, sagittal spine and disc cross-section",specific for the intervertebral discs
